In experiment [1] the target is T1, human recombinant CHRM3 receptor (Homo sapiens, UniProt P20309).
T1 construct: expressed in transfected cells; host or cells: CHO cells (membranes)
Description: Radioligand binding assay, CHRM3. As to conditions: [3H]4-DAMP (0.2 nM), CHO cell membranes, 60 minutes at room temperature; read-out: Ki M3. In short, it runs like this:
(§1)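 Membranes from CHO cells expressing each human recombinant receptor; radioligands [^3H]pirenzepine (2 nM) for CHRM1, [^3H]AF-DX 384 (2 nM) for CHRM2, [^3H]4-DAMP at 0.2 nM for CHRM3 and 0.3 nM for CHRM5. Compounds at 1×10^−9 to 1×10^−5 M; 60 min, room temperature. Percent inhibition of radioligand binding; Ki determined.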

The target of experiment [2] is T2, human recombinant CHRM2 receptor (Homo sapiens, UniProt P08172).
T2 construct: expressed in transfected cells; host or cells: CHO cells (membranes)
T2 sequence (P08172 1-466): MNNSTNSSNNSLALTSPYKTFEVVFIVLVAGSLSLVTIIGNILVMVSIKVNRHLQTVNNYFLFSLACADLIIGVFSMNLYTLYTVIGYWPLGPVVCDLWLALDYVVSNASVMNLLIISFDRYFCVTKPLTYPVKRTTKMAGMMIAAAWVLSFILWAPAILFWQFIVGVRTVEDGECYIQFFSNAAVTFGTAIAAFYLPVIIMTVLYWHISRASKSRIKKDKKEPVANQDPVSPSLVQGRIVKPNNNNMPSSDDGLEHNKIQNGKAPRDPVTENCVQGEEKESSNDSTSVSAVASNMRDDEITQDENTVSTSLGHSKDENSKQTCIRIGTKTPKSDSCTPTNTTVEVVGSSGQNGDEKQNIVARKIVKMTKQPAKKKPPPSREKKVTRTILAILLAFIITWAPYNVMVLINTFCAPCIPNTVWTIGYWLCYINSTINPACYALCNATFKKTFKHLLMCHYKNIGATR
In words: Radioligand binding assay, CHRM2. As to conditions: [3H]AF-DX 384 (2 nM), CHO cell membranes, 60 minutes at room temperature; read-out: Ki M2. The gist of the method:
as §1

The subject of another experiment is Mouse BFU-Es. In words: Primary mouse BFU-E culture assay (cell expansion). The format is cell-based. The procedure: Primary mouse BFU-Es were isolated from mouse embryonic day 14.5 (E14.5) fetal liver and cultured in StemSpan serum-free expansion medium, and the numbers of cells formed were counted during culture. BFU-Es were infected with either viruses encoding control shRNA or viruses encoding shRNAs targeting Chrm4, and numbers of GFP+ cells formed during culture were counted. DMSO or 25 mg/kg oxyphenonium bromide was intraperitoneally injected into the hemolysis mouse model, Mx1-cre Srsf2 P95H/WT MDS mouse model, and aging mouse model. Complete blood count (CBC) was performed after compound injection. CREB ChIP-Seq was performed on BFU-Es after culture with 100 μM oxyphenonium bromide for 45 minutes. RNA-Seq was performed in BFU-Es after being cultured with DMSO or oxyphenonium bromide for 3 days.
BFU-Es were isolated from mouse embryonic day 14.5 fetal liver using fluorescence-activated cell sorting (FACS) method previously described (Flygare et al., Blood 117, 3435-3444 (2011)). BFU-Es were cultured in StemSpan SFEM II medium containing rmSCF (100 ng/ml), EPO (2 U/ml), rmIGF-1 (40 ng/ml), dexamethasone (1 nmol/ml or 10 nmol/ml), oxyphenonium bromide ([…]), and orphenadrine citrate (1 μmol/ml).
BFU-Es were isolated from mouse embryonic day 14.5 fetal liver using fluorescence-activated cell sorting (FACS) method. BFU-Es were cultured in StemSpan SFEM II medium containing rmSCF (100 ng/ml), EPO (2 U/ml), rmIGF-1 (40 ng/ml), dexamethasone (1 nM), together with either DMSO, PCS1055 (5 nM), or PD102807 (3 nM). Numbers of cell formed were counted during in vitro culture.
FIGS. 7 and 8 show the results of the primary BFU-E culture assay. […] Highly purified BFU-Es were isolated as lin-Ter-119-CD16/CD32-Sca-1-CD41-c-Kit+CD71/Cd24a^10% low population using the fluorescence-activated cell sorting (FACS) method. BFU-Es were cultured in medium containing rmSCF, EPO, and rmIGF-1, in the presence of PD102807 or Compounds A-K at indicated concentrations.

The subject of experiment [3] is PHZ induced hemolytic anemia in C57bl/6 mice. In words: PHZ induced hemolytic anemia mouse model, CBC. The format is in vivo. As to conditions: 100 mg/kg oral once per day, CBC on day 6, vs DMSO control. The procedure:
Animal experiments were conducted in the Cold Spring Harbor Laboratory Animal Shared Resource in accordance with Institutional Animal Care and Use Committee-approved procedures. 4-6 weeks old C57bl/6 mice, purchased from Jackson Laboratory and randomly distributed into compound and control treatment groups, were given through oral delivery of PCS1055 (50 mg/kg or 100 mg/kg) twice per day or PD102807 (50 mg/kg or 100 mg/kg) once per day everyday for 3 days. On day 3, mice were intraperitoneally injected with 60 mg/kg PHZ. Mice were then given through oral delivery of PD102807 (50 mg/kg or 100 mg/kg) once per day every day for 2 days. Peripheral blood samples were collected retro-orbitally on day 6 using heparinized capillary tubes in blood collection tubes with K2-EDTA. CBC was performed using Hemavet 950. […] C57bl/6 mice were injected with 60 mg/kg phenylhydrazine to induce hemolysis. Mice were delivered with either vehicle control or Compound A or B (30 mg/kg or 100 mg/kg). Peripheral blood samples were collected retro-orbitally using heparinized capillary tubes into blood collection tubes with K2-EDTA. Complete blood counting was performed using Hemavet 950. Hematocrit (HCT), red blood cell (RBC) and hemoglobin (Hb) values are shown. […] C57bl/6 mice were injected with 60 mg/kg phenylhydrazine to induce hemolysis. Mice were delivered with subcutaneous injection with either vehicle control or Compound B (1.5 mg/kg, 3 mg/kg, or 5 mg/kg) or I (0.5 mg/kg, 0.7 mg/kg, or 1 mg/kg). Peripheral blood samples were collected retro-orbitally using heparinized capillary tubes into blood collection tubes with K2-EDTA. Complete blood counting was performed using Hemavet 950. Hematocrit (HCT), red blood cell (RBC) and hemoglobin (Hb) values are shown.

Experiment [4] addresses T3, CHRM4 (Homo sapiens, UniProt P08173).
T3 sequence (P08173 1-479): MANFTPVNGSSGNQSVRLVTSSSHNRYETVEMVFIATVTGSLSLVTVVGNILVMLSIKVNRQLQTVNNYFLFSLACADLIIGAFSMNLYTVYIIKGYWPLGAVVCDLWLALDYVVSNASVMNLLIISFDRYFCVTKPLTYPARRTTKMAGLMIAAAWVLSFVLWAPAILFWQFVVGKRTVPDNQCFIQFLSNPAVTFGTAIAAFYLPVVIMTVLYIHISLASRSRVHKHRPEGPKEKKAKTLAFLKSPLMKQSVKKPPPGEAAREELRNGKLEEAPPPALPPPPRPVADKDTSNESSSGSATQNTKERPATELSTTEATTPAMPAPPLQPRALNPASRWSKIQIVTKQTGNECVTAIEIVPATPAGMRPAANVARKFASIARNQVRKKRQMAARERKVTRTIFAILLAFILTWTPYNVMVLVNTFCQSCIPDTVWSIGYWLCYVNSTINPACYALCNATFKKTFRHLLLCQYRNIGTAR
As to conditions: previous reports (Croy 2016; Böhme 2002); cited from earlier work.

For experiment [5], the target named is T3, CHRM4. In words: Radioligand binding assay, CHRM4. Details: expressed in transfected cells; host or cells: CHO cells (membranes). As to conditions: [3H]4-DAMP (0.2 nM), CHO cell membranes, 60 minutes at room temperature; read-out: Ki M4.

As a reminder, the Ki is the equilibrium dissociation constant of an inhibitor or competing ligand from its target.

T1 sequence (P20309 whole entry): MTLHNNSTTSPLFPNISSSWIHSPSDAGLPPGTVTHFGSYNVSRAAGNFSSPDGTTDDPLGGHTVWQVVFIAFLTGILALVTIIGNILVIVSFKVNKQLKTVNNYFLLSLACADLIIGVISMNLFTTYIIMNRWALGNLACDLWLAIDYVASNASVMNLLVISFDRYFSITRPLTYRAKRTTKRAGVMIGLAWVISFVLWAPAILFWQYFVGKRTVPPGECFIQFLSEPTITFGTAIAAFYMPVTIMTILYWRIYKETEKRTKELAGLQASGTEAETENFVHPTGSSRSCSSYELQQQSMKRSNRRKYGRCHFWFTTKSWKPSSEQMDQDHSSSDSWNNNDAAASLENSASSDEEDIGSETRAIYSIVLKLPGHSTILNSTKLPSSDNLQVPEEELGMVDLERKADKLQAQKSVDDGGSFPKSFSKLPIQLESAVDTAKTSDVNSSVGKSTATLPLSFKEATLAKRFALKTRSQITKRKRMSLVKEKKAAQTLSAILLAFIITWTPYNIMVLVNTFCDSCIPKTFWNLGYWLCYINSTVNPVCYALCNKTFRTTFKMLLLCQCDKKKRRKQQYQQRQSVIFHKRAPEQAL

For `CCOC(=O)c1c(C)[nH]c2ccc3c(c12)CN1CCc2cc(OC)ccc2C1O3` (centres unmarked) [PD102807, reference compound], the Ki amounted to 210 nM in experiment [1], 2500 nM in experiment [2] and 5.1 nM on CHRM4 [5]. Moreover, in the experiment with Mouse BFU-Es (3 nM PD102807), the “expansion of BFU-E cells in cell culture” value is “increase the expansion of BFU-E cells”. For the same compound, the “BFU-E expansion, cell numbers at day 9” value in the experiment on Mouse BFU-Es (indicated concentrations, vs untreated) was “induce BFU-E expansion”. Also, the “HCT, PHZ-induced anemia” value in experiment [3] was “significantly improved”. The “RBC, PHZ-induced anemia” value in experiment [3] is “significantly improved”. Also, on CHRM4 [4], the “selectivity for CHRM4 over other muscarinic acetylcholine receptor family members” value is recorded as “selectively inhibits CHRM4”.
